Consider 21 compounds from PubChem BioAssay (NCI).

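These data come from cells grown in 96-well plates and exposed to compound for 48 hours at five concentrations. Definition used: TGI = concentration required for complete inhibition of growth.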

Test systems include OVCAR-5 ovarian; SR leukemia; NCI-H23 lung; MDA-N; NCI-H226 lung; HT29 colon; HOP-62 NSCLC; NCI-H522 lung; SNB-75 CNS; NCI-H460 lung.
What all share (assay): inhibition of tumour cell growth, NCI panel, 48 h

For `CC1CC[C@@]2(OC1)OC1C[C@H]3[C@@H]4CC[C@H]5CC(OC6OC(CO)C(OC7OC(CO)C(O)C(O)C7OC7OC(CO)C(O)C(O)C7O)C(O)C6O)CCC5(C)[C@H]4CCC3(C)C1[C@@H]2C` (stereo not given in full), the TGI came out at 8.08 µM with OVCAR-5 ovarian; 7.95 µM in the test with SR leukemia; 10.7 µM in the test with NCI-H23 lung; 9.31 µM in the test on MDA-N; 3.37 µM with NCI-H226 lung; 1.86 µM with HT29 colon. Also, the TGI is 3.65 µM in the test on HOP-62 NSCLC, 5.19 µM in the test with NCI-H522 lung, 4.81 µM with SNB-75 CNS and 11.6 µM with NCI-H460 lung.
Take `COc1cc(C2CC(C)(Nc3ccccc3)Oc3cc4c(cc32)OCO4)cc(OC)c1OC` (stereo not given): the TGI in the test on OVCAR-5 ovarian was more than 34.3 µM; with SR leukemia it was more than 60.7 µM; in the test on NCI-H23 lung it was more than 33.6 µM; with MDA-N it was 0.183 µM; in the test on NCI-H226 lung, 7.12 µM; with HT29 colon, 0.619 µM. Further, the TGI in the test with HOP-62 NSCLC is more than 55.1 µM; in the test on NCI-H522 lung it was 10.7 µM; in the test with SNB-75 CNS it was more than 100 µM; in the test with NCI-H460 lung, 25.6 µM.
Regarding `c1ccc2sc(SCSc3nc4ccccc4s3)nc2c1`, the TGI in the test with OVCAR-5 ovarian, in the test on SR leukemia, in the test with NCI-H23 lung, with MDA-N, in the test with NCI-H226 lung and in the test on HT29 colon was more than 100 µM throughout. The TGI in the test with HOP-62 NSCLC, in the test with NCI-H522 lung, with SNB-75 CNS and in the test with NCI-H460 lung was more than 100 µM each time.
With `CCCNC(=O)CCC(C)[C@H]1CCC2C3C(C[C@H](OC(C)=O)[C@@]21C)[C@@]1(C)CCC2(C[C@H]1C[C@H]3OC(C)=O)OOC1(CCC(C)CC1)OO2` (stereo not given in full), the TGI in the test with OVCAR-5 ovarian was 87.4 µM; in the test on SR leukemia, 36.5 µM; in the test with NCI-H23 lung it was 18.7 µM; with MDA-N it was 28.6 µM; in the test with NCI-H226 lung it was more than 100 µM; in the test with HT29 colon it was more than 100 µM. Also, the TGI was determined as 3.47 µM in the test with HOP-62 NSCLC, 33.3 µM with NCI-H522 lung, 53.5 µM in the test on SNB-75 CNS and 71.2 µM in the test with NCI-H460 lung.
For `CN(C)CCCN1C(=S)N(CCCN(C)C)c2c3cc(O)ccc3nc3c([N+](=O)[O-])ccc1c23`, the TGI with OVCAR-5 ovarian was 28.5 µM; with SR leukemia, more than 22.5 µM; in the test with NCI-H23 lung, 17.1 µM; in the test on MDA-N it was 34.9 µM; with NCI-H226 lung it was 13.7 µM; in the test with HT29 colon it was 6.31 µM. In addition, the TGI stood at 15.3 µM in the test on HOP-62 NSCLC, 9.93 µM in the test on NCI-H522 lung, 16.9 µM in the test on SNB-75 CNS and 6.7 µM in the test with NCI-H460 lung.
As for `CN(C)c1nc(=NCc2ccccc2)ss1`, the TGI is more than 10 µM in the test with OVCAR-5 ovarian; 6.37 µM in the test on SR leukemia; more than 10 µM in the test on NCI-H23 lung; more than 10 µM in the test with MDA-N; more than 10 µM in the test with NCI-H226 lung; more than 10 µM in the test with HT29 colon. Further, the TGI in the test with HOP-62 NSCLC, in the test on NCI-H522 lung, in the test with SNB-75 CNS and in the test on NCI-H460 lung was more than 10 µM throughout.
With `CN(C)Cc1cc(C(=O)/C=C/c2ccc(O)cc2)cc(CN(C)C)c1O`, the TGI was more than 100 µM with OVCAR-5 ovarian; 69.5 µM in the test on SR leukemia; more than 100 µM with NCI-H23 lung; more than 100 µM in the test with MDA-N; more than 100 µM with NCI-H226 lung; more than 100 µM in the test with HT29 colon. The TGI with HOP-62 NSCLC was more than 100 µM; with NCI-H522 lung it was 75.6 µM; with SNB-75 CNS it was 86.3 µM; in the test on NCI-H460 lung, more than 100 µM.
Take `O=C1C[C@H](Sc2ccccc2)C2(OCCO2)[C@@H](Sc2ccccc2)C1`: the TGI in the test with OVCAR-5 ovarian was 12.3 µM; in the test with SR leukemia it was 1.22 µM; in the test on NCI-H23 lung, 6.08 µM; in the test with MDA-N it was 6.83 µM; in the test on NCI-H226 lung it was 6.03 µM; with HT29 colon it was 3.7 µM. Also, the TGI with HOP-62 NSCLC is 13.6 µM; with NCI-H522 lung it was 1.81 µM; in the test on SNB-75 CNS it was 26 µM; in the test on NCI-H460 lung, more than 44.5 µM.
As to `Oc1ccccc1/C=N/c1nc2cc3sc(/N=C/c4ccccc4O)nc3cc2s1`, the TGI in the test on OVCAR-5 ovarian was more than 100 µM; in the test with SR leukemia, more than 42.1 µM; in the test with NCI-H23 lung, more than 100 µM; in the test with MDA-N, more than 100 µM; with NCI-H226 lung, 98.5 µM; with HT29 colon it was more than 100 µM. Also, the TGI in the test with HOP-62 NSCLC, in the test with NCI-H522 lung, in the test on SNB-75 CNS and in the test on NCI-H460 lung was more than 100 µM each time.
As for `CCCn1c(CN(Cc2nc3ccccc3n2CCC)Cc2nc3ccccc3n2CCC)nc2ccccc21`, the TGI was more than 89.9 µM in the test with OVCAR-5 ovarian; 11.8 µM in the test on SR leukemia; more than 49.6 µM with NCI-H23 lung; 25.1 µM in the test with MDA-N; 27.3 µM with NCI-H226 lung; more than 41.1 µM in the test with HT29 colon. In addition, the TGI in the test on HOP-62 NSCLC was more than 91 µM; in the test with NCI-H522 lung, more than 59.9 µM; in the test on SNB-75 CNS, 75.1 µM; in the test with NCI-H460 lung, 18.5 µM.
Take `CC(C)/C(Cl)=N\OC(=O)Nc1ccc(C#N)cc1`: the TGI was 28.4 µM in the test on OVCAR-5 ovarian; more than 25.6 µM with SR leukemia; 30 µM in the test with NCI-H23 lung; 17.3 µM in the test with MDA-N; 27.2 µM in the test with NCI-H226 lung; 43 µM with HT29 colon. Also, the TGI stood at 31.6 µM in the test on HOP-62 NSCLC, 3.21 µM in the test on NCI-H522 lung, 31.6 µM in the test on SNB-75 CNS and 33.4 µM in the test on NCI-H460 lung.
As to `CCOC(=N)n1c(=O)n(C2=NCCN2)c2ccccc21`, the TGI with OVCAR-5 ovarian, in the test on SR leukemia, with NCI-H23 lung, with MDA-N, in the test on NCI-H226 lung and in the test with HT29 colon was more than 100 µM in each case. Also, the TGI in the test on HOP-62 NSCLC, in the test on NCI-H522 lung, in the test on SNB-75 CNS and in the test on NCI-H460 lung was more than 100 µM each time.
With `O=c1c2cc3c(cc2[nH]c2ncccc12)OCO3`, the TGI in the test on OVCAR-5 ovarian, in the test on SR leukemia, in the test with NCI-H23 lung, in the test with MDA-N, in the test with NCI-H226 lung and with HT29 colon was more than 10 µM each time. Also, the TGI with HOP-62 NSCLC, in the test with NCI-H522 lung, in the test with SNB-75 CNS and in the test with NCI-H460 lung was more than 10 µM each time.
With `COc1ccc(C2(CC(C)O)SCCCS2)cc1` (stereo not given), the TGI in the test with OVCAR-5 ovarian, in the test on SR leukemia, with NCI-H23 lung, in the test with MDA-N, in the test on NCI-H226 lung and with HT29 colon was more than 100 µM throughout. The TGI with HOP-62 NSCLC, in the test on NCI-H522 lung, in the test on SNB-75 CNS and in the test on NCI-H460 lung was more than 100 µM in each case.
For `CC(O)C1CC1(CO)CNc1cc(Cl)nc(N)n1` (stereo not given), the TGI in the test with OVCAR-5 ovarian, in the test on SR leukemia, with NCI-H23 lung, in the test with MDA-N, in the test with NCI-H226 lung and in the test with HT29 colon was more than 100 µM in each case. Also, the TGI in the test with HOP-62 NSCLC, with NCI-H522 lung, with SNB-75 CNS and in the test on NCI-H460 lung was more than 100 µM each time.
In the case of `CC1(C)N=C(C(N)=O)c2ncn(CCCO)c2N1`, the TGI in the test on OVCAR-5 ovarian, in the test with SR leukemia, with NCI-H23 lung, with MDA-N, with NCI-H226 lung and in the test on HT29 colon was more than 100 µM throughout. Further, the TGI in the test with HOP-62 NSCLC, in the test with NCI-H522 lung, in the test with SNB-75 CNS and in the test on NCI-H460 lung was more than 100 µM throughout.
For `O=P(c1ccccc1)(c1ccccc1)N1O[C@@H](c2ccccc2)C=C[C@H]1c1ccccc1`, the TGI is 32.1 µM in the test on OVCAR-5 ovarian; 50.4 µM with SR leukemia; 25.2 µM with NCI-H23 lung; 12.7 µM with MDA-N; 29.4 µM in the test with NCI-H226 lung; 26.5 µM in the test with HT29 colon. Also, the TGI came to 46.5 µM with HOP-62 NSCLC, 24.5 µM in the test with NCI-H522 lung, 26.5 µM in the test with SNB-75 CNS and 20.1 µM in the test with NCI-H460 lung.
As to `CC12CC(=O)C3C(C(=O)C1)C32C` (stereo not given), the TGI in the test on OVCAR-5 ovarian, with SR leukemia, in the test on NCI-H23 lung, in the test with MDA-N, in the test on NCI-H226 lung and in the test on HT29 colon was more than 100 µM throughout. The TGI in the test with HOP-62 NSCLC, in the test on NCI-H522 lung, in the test with SNB-75 CNS and in the test on NCI-H460 lung was more than 100 µM each time.
In the case of `Cc1csc(-c2cn(C)c3c2C(=O)C(N)=CC3=O)n1`, the TGI with OVCAR-5 ovarian is more than 100 µM; in the test on SR leukemia, 19.5 µM; with NCI-H23 lung, more than 30 µM; in the test on MDA-N, 45.2 µM; in the test with NCI-H226 lung, more than 80.1 µM; with HT29 colon, more than 67.1 µM. Moreover, the TGI is 98.5 µM in the test on HOP-62 NSCLC, more than 100 µM with NCI-H522 lung, 6.48 µM in the test on SNB-75 CNS and 15.9 µM in the test on NCI-H460 lung.
Take `CCCCC1c2c([nH]c3ccccc23)C2C(=O)N(c3ccc(OC)cc3)C(=O)C2C1CCC` (stereo not given): the TGI is more than 10 µM in the test with OVCAR-5 ovarian; 8.22 µM in the test with SR leukemia; more than 10 µM in the test with NCI-H23 lung; 7.45 µM in the test on MDA-N; more than 10 µM with NCI-H226 lung; 8.52 µM with HT29 colon. Also, the TGI is more than 10 µM in the test with HOP-62 NSCLC, more than 10 µM in the test on NCI-H522 lung, 6.5 µM in the test with SNB-75 CNS and more than 10 µM in the test with NCI-H460 lung.
Turning to `N#CC(C#N)=CNC(=S)c1ccncc1`, the TGI in the test on OVCAR-5 ovarian, in the test with SR leukemia, in the test with NCI-H23 lung, with MDA-N, in the test with NCI-H226 lung and in the test with HT29 colon was more than 100 µM each time. The TGI with HOP-62 NSCLC, in the test with NCI-H522 lung, with SNB-75 CNS and with NCI-H460 lung was more than 100 µM in each case.
